Each structure is given as a SMILES string. Where only a bound is given, the exact number is not on record here.

Consider 28 compounds from patent US7998952B2, “Thiolactams and uses thereof” (Millennium Pharmaceuticals, Inc., priority 2008, dated 2011).

The target of the assay is T1, recombinant human PLK1[2-369]T210D (Homo sapiens, UniProt P53350, T210D).
T1 construct: recombinant human PLK1[2-369]T210D; Smt (SUMO) fusion partner (N, cleaved yes); host or cells: E. coli
The assay can be described thus: PLK1 DELFIA Kinase Assay. The settings on record: 50 μM ATP, 2 μM peptide substrate, 0.3 nM enzyme, 90 minutes at room temperature. Format: biochemical. Here is the method: Recombinant human PLK1 was expressed in E. coli as an N-terminal Smt fusion protein using a proprietary vector (pSGX4) by Structural Genomics (SGX). The fusion partner was removed through cleavage with Ulp1 after an initial purification using a Ni2+ affinity column.
PLK1 DELFIA® Kinase Assay
The enzymatic reaction mixture, with or without PLK inhibitors, was incubated 90 minutes at room temperature before termination with 50 μL of STOP buffer containing 1% BSA, 0.05% Tween20, 100 mM EDTA. 50 μL of the stopped enzyme reaction mixture was transferred to a Neutravidin-coated 384-well plate (Pierce) and incubated at room temperature for 60 minutes. […] The wells were washed and then the bound europium was liberated using 50 μL of Enhancement Solution (Perkin Elmer). Quantification of europium was done using a Pherastar (BMG Labtech)

T1 sequence (P53350 2-369 T210D): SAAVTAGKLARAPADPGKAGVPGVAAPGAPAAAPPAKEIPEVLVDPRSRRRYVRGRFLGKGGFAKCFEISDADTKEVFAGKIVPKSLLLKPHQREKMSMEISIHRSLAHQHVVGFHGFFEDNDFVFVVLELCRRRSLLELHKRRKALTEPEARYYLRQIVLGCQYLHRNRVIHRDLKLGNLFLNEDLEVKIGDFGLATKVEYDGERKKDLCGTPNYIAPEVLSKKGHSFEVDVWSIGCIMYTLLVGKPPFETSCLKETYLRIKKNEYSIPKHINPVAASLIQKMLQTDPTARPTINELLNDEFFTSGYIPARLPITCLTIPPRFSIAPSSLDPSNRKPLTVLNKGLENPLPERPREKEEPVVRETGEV

A word on the IC50: it is the midpoint of a concentration-inhibition curve. Regarding `CN(C)CCc1cnc(C(F)(F)F)c(Nc2ncc3c(n2)-c2ccc(Cl)cc2NC(=S)C3)c1` [Compound I-70, 9-chloro-2-{[5-[2-(dimethylamino)ethyl]-2-(trifluoromethyl)pyridin-3-yl]amino}-5,7-dihydro-6H-pyrimido[5,4-d][1]benzazepine-6-thione], the IC50 was 5 to 25 nM.
Take `CCN1CCN(c2cncc(Nc3ncc4c(n3)-c3ccc(Cl)cc3NC(=S)C4)c2)C[C@@H]1C` [Compound I-11, 9-chloro-2-({5-[(3S)-4-ethyl-3-methylpiperazin-1-yl]pyridin-3-yl}amino)-5,7-dihydro-6H-pyrimido[5,4-d][1]benzazepine-6-thione]: the IC50 was < 5 nM.
As to `Cc1ncc(CCN2CCCC(N(C)C)C2)cc1Nc1ncc2c(n1)-c1ccc(Cl)cc1NC(=S)C2` (stereo not shown) [Compound I-34, 9-chloro-2-[(5-{2-[3-(dimethylamino)piperidin-1-yl]ethyl}-2-methylpyridin-3-yl)amino]-5,7-dihydro-6H-pyrimido[5,4-d][1]benzazepine-6-thione], the IC50 is < 5 nM.
Turning to `CN1CCN(CCc2cncc(Nc3ncc4c(n3)-c3ccc(Cl)cc3NC(=S)C4)c2)CC1` [Compound I-51, 9-chloro-2-({5-[2-(4-methylpiperazin-1-yl)ethyl]pyridin-3-yl}amino)-5,7-dihydro-6H-pyrimido[5,4-d][1]benzazepine-6-thione], the IC50 was < 5 nM.
`Cc1ncc(Nc2ncc3c(n2)-c2ccc(Cl)cc2NC(=S)C3)cc1CCCN(C)C` [Compound I-94, 9-chloro-2-({5-[3-(dimethylamino)propyl]-6-methylpyridin-3-yl}amino)-5,7-dihydro-6H-pyrimido[5,4-d][1]benzazepine-6-thione]: the IC50 was < 5 nM.
Regarding `CCN1CCC(c2cnc(C)c(Nc3ncc4c(n3)-c3ccc(Cl)cc3NC(=S)C4)c2)CC1` [Compound I-17, 9-chloro-2-{[5-(1-ethylpiperidin-4-yl)-2-methylpyridin-3-yl]amino}-5,7-dihydro-6H-pyrimido[5,4-d][1]benzazepine-6-thione], the IC50 is < 5 nM.
As for `CN(C)CCc1cncc(Nc2ncc3c(n2)-c2ccc(Cl)cc2NC(=S)C3)c1` [Compound I-104, 9-chloro-2-({5-[2-(dimethylamino)ethyl]pyridin-3-yl}amino)-5,7-dihydro-6H-pyrimido[5,4-d][1]benzazepine-6-thione], the concentration for half-maximal inhibition (IC50) was < 5 nM.
In the case of `CN1CCN(c2ccc(Nc3ncc4c(n3)-c3ccc(Cl)cc3NC(=S)C4)cn2)CC1` [Compound I-28, 9-chloro-2-{[6-(4-methylpiperazin-1-yl)pyridin-3-yl]amino}-5,7-dihydro-6H-pyrimido[5,4-d][1]benzazepine-6-thione], the IC50 was < 5 nM.
Then `CN(C)CCCN(C)c1ccc(Nc2ncc3c(n2)-c2ccc(Cl)cc2NC(=S)C3)cn1` [Compound I-71, 9-chloro-2-({6-[[3-(dimethylamino)propyl](methyl)amino]pyridin-3-yl}amino)-5,7-dihydro-6H-pyrimido[5,4-d][1]benzazepine-6-thione], with 5 to 25 nM.
As to `Cc1ncc(CCN2CCC(N(C)C)C2)cc1Nc1ncc2c(n1)-c1ccc(Cl)cc1NC(=S)C2` (stereo not shown) [Compound I-15, 9-chloro-2-[(5-{2-[3-(dimethylamino)pyrrolindin-1-yl]ethyl}-2-methylpridin-3-yl)amino]-5,7-dihydro-6H-pyrimido[5,4-d][1]benzazepine-6-thione], the IC50 is < 5 nM.
`Cc1ncc(CCCN(C)C)cc1Nc1ncc2c(n1)-c1ccc(C#N)cc1NC(=S)C2` [Compound I-79, 2-({5-[3-(dimethylamino)propyl]-2-methylpyridin-3-yl}amino)-6-thioxo-6,7-dihydro-5H-pyrimido[5,4-d][1]benzazepine-9-carbonitrile]: the IC50 was 5 to 25 nM.
Regarding `Cc1ncc(CCN2CCCCC2)cc1Nc1ncc2c(n1)-c1ccc(Cl)cc1NC(=S)C2` [Compound I-54, 9-chloro-2-{[2-methyl-5-(2-piperidin-1-ylethyl)pyridin-3-yl]amino}-5,7-dihydro-6H-pyrimido[5,4-d][1]benzazepine-6-thione], the half-inhibitory concentration (IC50) is < 5 nM.
Turning to `Cc1nc(NC(C)C)ccc1Nc1ncc2c(n1)-c1ccc(C(F)(F)F)cc1NC(=S)C2` [Compound I-57, 2-{[6-(isopropylamino)-2-methylpyridin-3-yl]amino}-9-(trifluoromethyl)-5,7-dihydro-6H-pyrimido[5,4-d][1]benzazepine-6-thione], the half-inhibitory concentration (IC50) is < 5 nM.
As for `Cc1ncc(CCN2CCN(C)CC2)cc1Nc1ncc2c(n1)-c1ccc(C(F)(F)F)cc1NC(=S)C2` [Compound I-26, 2-({2-methyl-5-[2-(4-methylpiperazin-1-yl)ethyl]pyridin-3-yl}amino)-9-(trifluoromethyl)-5,7-dihydro-6H-pyrimido[5,4-d][1]benzazepine-6-thione], the figure is < 5 nM; as for `CN(C)CCCc1cnc(C(F)(F)F)c(Nc2ncc3c(n2)-c2ccc(C(F)(F)F)cc2NC(=S)C3)c1` [Compound I-36, 2-{[5-[3-(dimethylamino)propyl]-2-(trifluoromethyl)pyridin-3-yl]amino}-9-(trifluoromethyl)-5,7-dihydro-6H-pyrimido[5,4-d][1]benzazepine-6-thione], 5 to 25 nM; as for `Cc1nc(NCC2CCN(C)CC2)ccc1Nc1ncc2c(n1)-c1ccc(C(F)(F)F)cc1NC(=S)C2` [Compound I-65], < 5 nM.
Then `Cc1nc(N(C)C2CCN(C)CC2)ccc1Nc1ncc2c(n1)-c1ccc(C(F)(F)F)cc1NC(=S)C2` [Compound I-75, 2-({2-methyl-6-[methyl(1-methylpiperidin-4-yl)amino]pyridin-3-yl}amino)-9-(trifluoromethyl)-5,7-dihydro-6H-pyrimido[5,4-d][1]benzazepine-6-thione], with < 5 nM; and `CCc1ccc2c(c1)NC(=S)Cc1cnc(Nc3cc(CCCN(C)C)cnc3C)nc1-2` [Compound I-5, 2-({5-[3-(dimethylamino)propyl]-2-methylpyridin-3-yl}amino)-9-ethyl-5,7-dihydro-6H-pyrimido[5,4-d][1]benzazepine-6-thione], with < 5 nM; and `Cc1nc(NCC2CCN(C)CC2)ccc1Nc1ncc2c(n1)-c1ccc(Cl)cc1NC(=S)C2` [Compound I-40, 9-chloro-2-[(2-methyl-6-{[(1-methylpiperidin-4-yl)methyl]amino}pyridin-3-yl)amino]-5,7-dihydro-6H-pyrimido[5,4-d][1]benzazepine-6-thione], with < 5 nM.
With `Cc1cc(NC2CCN(C)CC2)ncc1Nc1ncc2c(n1)-c1ccc(C(F)(F)F)cc1NC(=S)C2` [Compound I-74, 2-({4-methyl-6-[(1-methylpiperidin-4-yl)amino]pyridin-3-yl}amino)-9-(trifluoromethyl)-5,7-dihydro-6H-pyrimido[5,4-d][1]benzazepine-6-thione], the IC50 was < 5 nM.
Then `Cc1nc(NC2CCOCC2)ccc1Nc1ncc2c(n1)-c1ccc(Cl)cc1NC(=S)C2` [Compound I-19, 9-chloro-2-{[2-methyl-6-(tetrahydro-2H-pyran-4-ylamino)pyridin-3-yl]amino}-5,7-dihydro-6H-pyrimido[5,4-d][1]benzazepine-6-thione], with < 5 nM; and `Cc1nc(OC2CCN(C)CC2)ccc1Nc1ncc2c(n1)-c1ccc(Cl)cc1NC(=S)C2` [Compound I-56, 9-chloro-2-({2-methyl-6-[(1-methylpiperidin-4-yl)oxy]pyridin-3-yl}amino)-5,7-dihydro-6H-pyrimido[5,4-d][1]benzazepine-6-thione], with 5 to 25 nM.
For the compound `CCN1CCN(c2cnc(C)c(Nc3ncc4c(n3)-c3ccc(C(F)(F)F)cc3NC(=S)C4)c2)C[C@@H]1C` [Compound I-2, 2-({5-[(3S)-4-ethyl-3-methylpiperazin-1-yl]-2-methylpyridin-3-yl}amino)-9-(trifluoromethyl)-5,7-dihydro-6H-pyrimido[5,4-d][1]benzazepine-6-thione], the half-maximal inhibitory concentration (IC50) was < 5 nM.
Then `Cc1nc2c(cc1Nc1ncc3c(n1)-c1ccc(C(F)(F)F)cc1NC(=S)C3)C[C@@H](N(C)C)CC2` [Compound I-114], with < 5 nM.
Take `Cc1nc(N2CCOCC2)ccc1Nc1ncc2c(n1)-c1ccc(C(F)(F)F)cc1NC(=S)C2` [Compound I-100, 2-[(2-methyl-6-morpholin-4-ylpyridin-3-yl)amino]-9-(trifluoromethyl)-5,7-dihydro-6H-pyrimido[5,4-d][1]benzazepine-6-thione]: the IC50 was < 5 nM.
On to `Cc1nc(N(C)C2CCN(C)CC2)ccc1Nc1ncc2c(n1)-c1ccc(Cl)cc1NC(=S)C2` [Compound I-105, 9-chloro-2-({2-methyl-6-[methyl(1-methylpiperidin-4-yl)amino]pyridin-3-yl}amino)-5,7-dihydro-6H-pyrimido[5,4-d][1]benzazepine-6-thione], for which the IC50 is < 5 nM.
As for `Cc1ncc(C2CCN(C)CC2)cc1Nc1ncc2c(n1)-c1ccc(Cl)cc1NC(=S)C2` [Compound I-14, 9-chloro-2-{[2-methyl-5-(1-methylpiperidin-4-yl)pyridin-3-yl]amino}-5,7-dihydro-6H-pyrimido[5,4-d][1]benzazepine-6-thione], the figure is < 5 nM; as for `Cc1nc(N2CCN(C)CC2)ccc1Nc1ncc2c(n1)-c1ccc(Cl)cc1NC(=S)C2` [Compound I-73, 9-chloro-2-{[2-methyl-6-(4-methylpiperazin-1-yl)pyridin-3-yl]amino}-5,7-dihydro-6H-pyrimido[5,4-d][1]benzazepine-6-thione], < 5 nM.
